Experimental data reported in paper PMC5732813, “Novel piplartine-containing ruthenium complexes: synthesis, cell growth inhibition, apoptosis induction and ROS production on HCT116 cells” (Oncotarget, 2017).
“And” between values parts separate entries of the source, which are not always exact repeats. Equal entries are not always repeated. Where two headings read alike, the source gives them in different places.

Columns and labels:
[1] = tested on: cancer multicellular spheroids formed from HCT116 cells; test: 3D multicellular spheroids culture, alamar blue assay; type: cell-based, human; conditions: for IC50: 3D spheroids of HCT116, 72 h treatment, alamar blue, read-out: IC50; for more potent than metal-free piplartine: 3D spheroids of HCT116, IC50 72 h
Protocol: (§1) Cell viability was quantified using the alamar blue assay, according to Ahmed et al.. Cells were inserted in 96-well plates for all experiments (7 x 10^4 cells/mL for adherent cells or 3 x 10^5 cells/mL for suspended cells in 100 μL of medium). […] Negative controls received the vehicle that was used for diluting the compounds tested.
HCT116 cells were cultivated in 3D multicellular spheroids. Briefly, 100 μL of a solution of cells (0.5 x 10^6 cells/mL) were inserted in 96-well plate with a cell-repellent surface (Greiner Bio-One, Kremsmünster, Austria) and cultured in RPMI 1640 medium with 10% fetal bovine serum, 2 mM glutamine, 3% matrigel (BD Biosciences, San Jose, CA, EUA) and 50 μg/mL gentamycin at 37°C with 5% CO2. […] Negative control received the vehicle that was used for diluting the compounds tested. In the end of the experiment, morphological changes were examined by light microscopy (Olympus BX41, Tokyo, Japan) using Image-Pro software (Media Cybernetics, Inc. Silver Spring, USA) and the cell viability was determined by alamar blue assay as described above.

[2] = tested on: BAD KO SV40 MEF (BAD gene knockout immortalized mouse embryonic fibroblast); test: Cytotoxic activity, alamar blue assay, BAD KO SV40 MEF; type: cell-based; conditions: BAD KO SV40 MEF, 72 h incubation, alamar blue; read-out: IC50
Text: (§2) HCT116 (human colon carcinoma), HepG2 (human hepatocellular carcinoma), HSC-3 (human oral squamous cell carcinoma), SCC-4 (human oral squamous cell carcinoma), SCC-9 (human oral squamous cell carcinoma), HL-60 (human promyelocytic leukemia), K-562 (human chronic myelogenous leukemia), B16-F10 (murine melanoma), MRC-5 (human lung fibroblast), WT SV40 MEF (wild-type immortalized mouse embryonic fibroblast) and BAD KO SV40 MEF (BAD gene knockout immortalized mouse embryonic fibroblast) cell lines were obtained from the American Type Culture Collection (ATCC, Manassas, VA, USA) and cultured in RPMI-1640 medium (Gibco-BRL, Gaithersburg, MD, USA) with 10% fetal bovine serum (Life, Carlsbad, CA, USA), 2 mM L-glutamine (Vetec Química Fina, Duque de Caxias, RJ, Brazil) and 50 μg/mL gentamycin (Life, Carlsbad, CA, USA). Adherent cells were collected by treatment with 0.25% trypsin EDTA solution (Gibco-BRL, Gaithersburg, MD, USA). All cell lines were cultured in flasks at 37°C in 5% CO2 and sub-cultured every 3-4 days to maintain exponential growth.
as §1

[3] = tested on: K-562 (human chronic myelogenous leukemia); test: Cytotoxic activity, alamar blue assay, K-562; type: cell-based; conditions: for more potent than metal-free piplartine: K562, IC50 72h
Text: as §2, §1

[4] = tested on: HCT116 cells; test: Internucleosomal DNA fragmentation and cell cycle distribution (DNA content, flow cytometry); type: cell-based, human
Protocol: Cells were harvested in a permeabilization solution containing 0.1% triton X-100 (Sigma Chemical Co. St Louis, MO, USA), 2 μg/mL propidium iodide (Sigma Chemical Co. St Louis, MO, USA), 0.1% sodium citrate and 100 μg/mL RNAse (Sigma Chemical Co. St Louis, MO, USA) and incubated in the dark for 15 min at room temperature.

[5] = tested on: HCT116 cells; conditions: trypan blue
Protocol: In all experiments, 2 mL of a HCT116 cell solution (7 x 10^4 cells/mL) was inserted in 24-well plates and incubated overnight to allow the cells to adhere to the plate surface. […] The negative control was treated with the vehicle (0.1% of a solution containing 70% sorbitol, 25% tween 80 and 5% water) used for diluting the compounds tested. […] Cell viability was assessed using trypan blue exclusion assay for all experiments.

[6] = tested on: HCT116 (human colon carcinoma); test: Cytotoxic activity, alamar blue assay, HCT116; type: cell-based
Text: as §2, §1

[7] = tested on: SCC-9 (human oral squamous cell carcinoma); test: Cytotoxic activity, alamar blue assay, SCC-9; type: cell-based; conditions: for more potent than metal-free piplartine: SCC9, IC50 72h
Text: as §2, §1

[8] = tested on: B16-F10 (murine melanoma); test: Cytotoxic activity, alamar blue assay, B16-F10; type: cell-based; conditions: for more potent than metal-free piplartine: B16-F10, IC50 72h
Text: as §2, §1

[9] = tested on: HL-60 (human promyelocytic leukemia); test: Cytotoxic activity, alamar blue assay, HL-60; type: cell-based
Text: as §2, §1

Substance | IC50 [1] | more potent than metal-free piplartine [1] | IC50 [2] | more potent than metal-free piplartine [3] | DNA content (%) S [4] | reduced the number of viable cells ([5]; HCT116, 2.5 μM, 24 h) | reduced the number of viable cells ([5]; HCT116, 2.5 μM, 48 h) | more potent than metal-free piplartine [7] | more potent than metal-free piplartine [8] | other results
[Ru(piplartine)(dppf)(bipy)](PF6)2 [Complex 1] | 7.3 µM | approximately 3 fold | 3.2 µM | 5 fold | 11.5 ± 2.5% and 20.1 ± 1.4% and 13.5 ± 1.5% and 21.9 ± 2.5% | 65.4% | 77.1% | 4 fold | 4 fold | Selectivity index (SI) ([3]; SI = IC50[MRC-5]/IC50[K-562]): 1.0; Selectivity index (SI) ([3]; SI = IC50[PBMC]/IC50[K-562]): 0.5; DNA content (%) G0/G1 [4]: 28.6 ± 5.9% and 39.4 ± 1.8% and 30.0 ± 5.8 % and 42.5 ± 1.7%; reduced the number of viable cells ([5]; HCT116, 1.25 μM, 24 h): 40.2%; reduced the number of viable cells ([5]; HCT116, 1.25 μM, 48 h): 61.5%; more potent than metal-free piplartine ([6]; HCT116, IC50 72h): 4 fold; Selectivity index (SI) ([6]; SI = IC50[MRC-5]/IC50[HCT116]): 2.0; Selectivity index (SI) ([6]; SI = IC50[PBMC]/IC50[HCT116]): 1.1; Selectivity index (SI) ([7]; SI = IC50[MRC-5]/IC50[SCC-9]): 0.8; Selectivity index (SI) ([7]; SI = IC50[PBMC]/IC50[SCC-9]): 0.4; Selectivity index (SI) ([8]; SI = IC50[MRC-5]/IC50[B16-F10]): 1.2; Selectivity index (SI) ([8]; SI = IC50[PBMC]/IC50[B16-F10]): 0.6; more potent than metal-free piplartine ([9]; HL-60, IC50 72h): 4 fold; Selectivity index (SI) ([9]; SI = IC50[MRC-5]/IC50[HL-60]): 1.0; Selectivity index (SI) ([9]; SI = IC50[PBMC]/IC50[HL-60]): 0.5
[Ru(piplartine)(dppb)(bipy)](PF6)2 [Complex 2] | 8.3 µM | ~2 fold | 4 µM | 3 fold | 18.7 ± 1.8% and 15.6 ± 1.8% and 21.2 ± 2.6% and 18.0 ± 1.3% | 35.5% | 55.5% | 2 fold | 3 fold | reduced the number of viable cells ([5]; HCT116, 5 μM, 24 h): 45.8%; reduced the number of viable cells ([5]; HCT116, 5 μM, 48 h): 66.9%
